Reference: ChEMBL document CHEMBL5528001, “Synthetic product-based approach toward potential antileishmanial drug development” (Eur J Med Chem, 2024)

Columns and labels:
Leishmania infantum [1] = experiment: Antileishmanial activity against Leishmania infantum amastigotes infected in human THP-1 cells assessed as reduction in parasite growth; format: functional, organism-based
[2] = Cytotoxicity against human WI-38 cells assessed as reduction in cell viability incubated for 48 hrs by MTT assay; format: toxicity, cell-based
Leishmania infantum [3] = experiment: Antileishmanial activity against Leishmania infantum MHOM/FR/2008/LEM5700 infected in BALB/c mouse assessed as reduction of parasite burden in liver at 10 mg/kg, po administered for 5 days relative to control; format: functional; parameters: scale not given: the % may be the effect or the level left; conditions: time 5 day
Leishmania infantum [4] = experiment: Antileishmanial activity against Leishmania infantum LEM 3049 isolate promastigote assessed as reduction in parasite growth after 72 hrs by MTT assay; format: functional, organism-based; conditions: LEM 3049, 72 h
Leishmania donovani [5] = experiment: Antileishmanial activity against Leishmania donovani promastigotes MHOM/SD/62/1S assessed as inhibition of cell growth measured after 48 hrs by resazurin dye based assay; format: functional, organism-based
[6] = Cytotoxicity against African green monkey Vero cells assessed as reduction in cell viability by MTT assay; format: toxicity, cell-based, Chlorocebus sabaeus
Leishmania tropica = experiment: Antileishmanial activity against Leishmania tropica MHOM/A7/1974/SAF-K27 assessed as reduction in parasite growth incubated for 48 hrs by Neubauer hemocytometer analysis; format: functional, organism-based; conditions: MHOM/A7/1974/SAF-K27, 48 h
Leishmania donovani [7] = experiment: Antileishmanial activity against Leishmania donovani amastigotes MHOM/SD/62/1S assessed as inhibition of cell growth measured after 48 hrs by resazurin dye based assay; format: functional, organism-based
Leishmania donovani [8] = experiment: Antileishmanial activity against Leishmania donovani 9515 amastigotes assessed as inhibition of parasite growth incubated for 48 hrs by resazurin dye based assay; format: functional, organism-based; conditions: Leishmania donovani, 9515, 48 h
Leishmania infantum [9] = experiment: Antileishmanial activity against Leishmania infantum promastigote assessed as inhibition of parasite growth after 72 hrs by MTT assay; format: functional, organism-based
HepG2 = experiment: Cytotoxicity against human HepG2 cells assessed as growth inhibition of cells measured for 48 hrs by MTT assay; format: functional, cell-based; conditions: HepG2, 48 h
Leishmania infantum [10] = experiment: Antileishmanial activity against Leishmanial infantum amastigotes assessed as inhibition of parasite growth measured after 72 hrs by MTT assay; format: functional, organism-based
Leishmania major = experiment: Antileishmanial activity against Leishmania major MHOM/IR/-173 assessed as reduction in parasite viability measured for 48 hrs by alamar-blue dye based analysis; format: functional, organism-based; conditions: MHOM/IR/-173, 48 h
[11] = Selectivity index, ratio of CC50 for cytotoxicity against HEK293 cells to IC50 for antileishmanial activity against Leishmania major IR-173 promastigotes; format: toxicity, cell-based; conditions: human, read-out: Ratio CC50/IC50
Leishmania donovani [12] = experiment: Antileishmanial activity against Leishmania donovani MHOM/IN/95/9515 assessed as reduction in parasite growth measured for 72 hrs by resazurin dye based analysis; format: functional, organism-based; conditions: MHOM/IN/95/9515, 72 h

COc1ccc(Br)cc1CN(C)C12CC3CC(CC(C3)C1)C2
IC50 (Leishmania infantum [1]): 320 nM | CC50 at 48 h [2]: 63700 nM | Activity (Leishmania infantum [3]): 59%

O=C(N/N=C1\C(=O)N(CC(O)COc2cc(=O)oc3ccccc23)c2ccccc21)c1ccncc1 (stereo not given)
IC50 (Leishmania infantum [4]): 30 nM

O=C(N/N=C\c1ccc([N+](=O)[O-])o1)c1ccc(OS(=O)(=O)c2cccnc2)cc1
IC50 (Leishmania donovani [5]): 90 nM | IC50 [6]: 3260 nM | IC50 (Leishmania tropica): 40 nM | IC50 (Leishmania donovani [7]): 90 nM | IC50 (Leishmania donovani [8]): 90 nM

O=C(CCCc1cc2ccccc2[nH]1)Nc1nc2ccccc2c2ccccc12
EC50 (Leishmania infantum [9]): 8530 nM | IC50 (HepG2): 10 nM | EC50 (Leishmania infantum [10]): 8900 nM

Cc1ccc(Cn2cc(COC3=CC(=O)c4ccccc4C3=O)nn2)cc1
IC50 (Leishmania major): 1480 nM | selectivity ratio [11]: > 55 | IC50 (Leishmania donovani [12]): 810 nM
